# Data published in paper PMC4877593, “Design and Synthesis of Potent in Vitro and in Vivo Anticancer Agents Based on 1-(3′,4′,5′-Trimethoxyphenyl)-2-Aryl-1H-Imidazole” (Scientific Reports, 2016).
# Where two headings read alike, the source gives them in different places.
# Legend:
# bovine brain tubulin = assay: Inhibition of tubulin polymerization (turbidimetry); type: biochemical
# Procedure: To evaluate the effect of the compounds on tubulin assembly in vitro[22], varying concentrations of compounds were preincubated with 10 μM bovine brain tubulin in glutamate buffer at 30 °C and then cooled to 0 °C. After addition of 0.4 mM GTP (final concentration), the mixtures were transferred to 0 °C cuvettes in a recording spectrophotometer equipped with an electronic temperature controller and warmed to 30 °C. Tubulin assembly was followed turbidimetrically at 350 nm. […] The ability of the test compounds to inhibit colchicine binding to tubulin was measured as described, except that the reaction mixtures contained 1 μM tubulin, 5 μM [^3H]colchicine and 1 or 5 μM test compound.
# Jurkat [1] = assay: Mitochondrial membrane potential (JC-1), Jurkat; type: cell-based, human; settings: Jurkat, 50, 100 and 250 nM; time- and concentration-dependent
# Procedure: Mitochondria play an essential role in the propagation of apoptosis. It is well established that, at an early stage, apoptotic stimuli alter the mitochondrial transmembrane potential (Δψmt). Δψmt was monitored by the fluorescence of the dye JC-1. […] This occurred in a time- and concentration-dependent fashion, and, in both cell lines, a significant increase was observed after a 6 h treatment. The disruption of Δψmt is associated with the appearance of annexin-V positivity in the treated cells when they are in an early apoptotic stage. […] Cells were treated with the indicated concentration of compound for 24 or 48 h and then stained with the fluorescent probe JC-1 for analysis of mitochondrial potential or H2-DCFDA for the evaluation of ROS levels. Cells were then analyzed by flow cytometry as described in the experimental section.
# Jurkat [2] = assay: ROS production (H2-DCFDA), Jurkat; type: cell-based, human; settings: in comparison with control cells
# Procedure: Figure 7 Assessment of mitochondrial membrane potential (Δψmt) and production of ROS after treatment of HeLa (Panels A,B) or Jurkat (Panels C,D) cells with compound 4o. Cells were treated with the indicated concentration of compound for 24 or 48 h and then stained with the fluorescent probe JC-1 for analysis of mitochondrial potential or H2-DCFDA for the evaluation of ROS levels. Cells were then analyzed by flow cytometry as described in the experimental section.
# It is also well known that dissipation of mitochondrial potential is associated with mitochondrial production of ROS[38]. Superoxide anion is produced by mitochondria due to a shift from the normal 4-electron reduction of O2 to a 1-electron reduction when cytochrome c is released from mitochondria upon apoptosis. Therefore, we investigated whether ROS production increased after treatment with compound 4o. We utilized the dye 2,7-dichlorodihydrofluorescein diacetate (H2-DCFDA), which is oxidized to the fluorescent compound dichlorofluorescein (DCF) upon ROS induction.
# A549 = assay: In vitro antiproliferative activity (MTT), A549; type: cell-based; settings: Homo sapiens, tumor cell proliferation, 72 h, mean ± SE
# Procedure: (§1) Human T-cell leukemia (CCRF-CEM and Jurkat) and human B-cell leukemia (SEM) cells were grown in RPMI-1640 medium (Gibco, Milano, Italy). Breast adenocarcinoma (MCF7), human cervix carcinoma (HeLa), and human colon adenocarcinoma (HT-29) cells were grown in DMEM medium (Gibco, Milano, Italy), all supplemented with 115 units/mL penicillin G (Gibco, Milano, Italy), 115 μg/mL streptomycin (Invitrogen, Milano, Italy), and 10% fetal bovine serum (Invitrogen, Milano, Italy). Stock solutions (10 mM) of the different compounds were obtained by dissolving them in dimethyl sulfoxide (DMSO). Individual wells of a 96-well tissue culture microtiter plate were inoculated with 100 μL of complete medium containing 8 × 10^3 cells. The plates were incubated at 37 °C in a humidified 5% CO2 incubator for 18 h prior to the experiments. After medium removal, 100 μL of fresh medium containing the test compound at different concentrations was added to each well in triplicate and incubated at 37 °C for 72 h. The percentage of DMSO in the medium never exceeded 0.25%. This was also the maximum DMSO concentration in all cell-based assays described below. […] Different concentrations of the test compounds were added, and viability was determined 72 h later by the MTT test. For cytotoxicity evaluations in resting PBL cultures, non-adherent cells were resuspended (5 × 10^5 cells/mL) and treated for 72 h with the test compounds, as described above.
# HL-60 = assay: In vitro antiproliferative activity (MTT), HL-60; type: cell-based; settings: Homo sapiens, tumor cell proliferation, 72 h, mean ± SE
# PBL stimulated with PHA = assay: Cytotoxicity in PHA-stimulated peripheral blood lymphocytes; type: cell-based, human; settings: 72 h, PBL from healthy donors, MTT, read-out: IC50 PBLPHA
# Procedure: (§2) This value was almost 600 times higher than that observed against the Jurkat lymphoblastic cell line.
# as §1, with “For cytotoxicity evaluations in resting PBL cultures, non-adherent cells were resuspended (5 × 10^5 cells/mL) and treated for 72 h with the test compounds, as described above.” left out
# MCF-7 = assay: In vitro antiproliferative activity (MTT), MCF-7; type: cell-based; settings: Homo sapiens, MCF7, tumor cell proliferation, 72 h, mean ± SE
# Procedure: as §1
# RS4;11 = assay: In vitro antiproliferative activity (MTT), RS4;11; type: cell-based; settings: Homo sapiens, tumor cell proliferation, 72 h, mean ± SE
# Jurkat [3] = assay: In vitro antiproliferative activity (MTT), Jurkat; type: cell-based; settings: Homo sapiens, tumor cell proliferation, 72 h, mean ± SE
# Procedure: as §1
# HeLa = assay: Annexin-V/PI apoptosis assay, HeLa; type: cell-based, human; settings: 24 h, lowest concentration used (50 nM)
# Procedure: To evaluate the induction of apoptosis by compound 4o in two cell lines (HeLa and Jurkat), we used an annexin-V/PI assay. Dual staining for annexin-V and with PI permits discrimination between live cells (annexin-V^−/PI^−), early apoptotic cells (annexin-V^+/PI^−), late apoptotic cells (annexin-V^+/PI^+) and necrotic cells (annexin-V^−/PI^+).
# Cell death was determined by flow cytometry of cells double stained with annexin V/FITC and PI. The Coulter Cytomics FC500 (Beckman Coulter) was used to measure the surface exposure of phosphatidyl serine on apoptotic cells according to the manufacturer’s instructions (Annexin-V Fluos, Roche Diagnostics).
# [4] = system: PBL not stimulated with PHA; assay: Cytotoxicity in resting peripheral blood lymphocytes; type: cell-based; settings: Homo sapiens, Lymphocyte, PBL from healthy donors, 72 h, MTT, read-out: IC50 PBLresting
# Procedure: as §2
# as §1, with “For cytotoxicity evaluations in resting PBL cultures, non-adherent cells were resuspended (5 × 10^5 cells/mL) and treated for 72 h with the test compounds, as described above.” left out
structure (smiles),measurement,setting,value
"CCOc1ccc(-c2nccn2-c2cc(OC)c(OC)c(OC)c2)cc1Cl [Compound 4o, 2-(3′-Chloro-4′-ethoxyphenyl)-1-(3′,4′,5′-trimethoxyphenyl)-1H-imidazole]",IC50,"bovine brain tubulin; repeated beside the calculated energies, read-out: inhibition of tubulin polymerization IC50 (Table 4)",870 nM
same,IC50,"bovine brain tubulin; tubulin at 10 μM, 20 min incubation, read-out: Tubulin assembly IC50 ± S.D.",870 nM
same,percentage of cells with low Δψmt (JC-1),Jurkat [1],remarkable increase
same,ROS production (H2-DCFDA),Jurkat [2],induced the production of large amounts of ROS
same,IC50,A549,0.57 ± 0.17 nM
same,IC50,HL-60,1.8 ± 0.6 nM
same,IC50,"PBL stimulated with PHA; Homo sapiens, Lymphocyte",~500 nM
same,IC50,PBL stimulated with PHA,520 ± 40 nM
same,IC50,MCF-7,0.7 ± 0.06 nM
same,IC50,RS4;11,1.2 ± 0.7 nM
same,IC50,Jurkat [3],0.9 ± 0.2 nM
same,annexin-V positive cells,HeLa,significant accumulation of annexin-V positive cells
same,IC50,[4],> 10000 nM
